Data on 4 compounds can be found in ChEMBL document CHEMBL1938312, “Design and combinatorial synthesis of a novel kinase-focused library using click chemistry-based fragment assembly” (Bioorg Med Chem Lett, 2012).

In test [1] the target is 3-phosphoinositide-dependent protein kinase 1 (Homo sapiens) (UniProt O15530). As to the kind of experiment: Inhibition of PDK1 at 10 uM by colorimetric analysis.
Test [2] concerns the target T1, Calcium/calmodulin-dependent protein kinase type IV (Homo sapiens) (UniProt Q16566).
T1 sequence (whole entry): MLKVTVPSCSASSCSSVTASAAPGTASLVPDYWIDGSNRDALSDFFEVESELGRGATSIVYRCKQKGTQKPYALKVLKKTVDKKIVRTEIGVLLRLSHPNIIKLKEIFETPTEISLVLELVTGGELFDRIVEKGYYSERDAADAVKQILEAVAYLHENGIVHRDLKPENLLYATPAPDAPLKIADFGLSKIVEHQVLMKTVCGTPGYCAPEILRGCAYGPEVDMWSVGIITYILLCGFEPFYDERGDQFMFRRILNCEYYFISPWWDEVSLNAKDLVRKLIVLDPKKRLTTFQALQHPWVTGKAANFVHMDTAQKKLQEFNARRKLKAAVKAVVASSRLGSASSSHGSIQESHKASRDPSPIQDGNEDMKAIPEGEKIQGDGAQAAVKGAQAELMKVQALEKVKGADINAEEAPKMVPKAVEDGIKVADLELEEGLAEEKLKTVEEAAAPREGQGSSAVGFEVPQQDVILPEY
As to the kind of experiment: Inhibition of CaMK4 at 10 uM by colorimetric analysis.

The target in test [3] is Vascular endothelial growth factor receptor 2 (Homo sapiens) (UniProt P35968). The test can be described thus: Inhibition of KDR at 10 uM by colorimetric analysis.
Vascular endothelial growth factor receptor 2 (Homo sapiens), sequence (P35968 whole entry): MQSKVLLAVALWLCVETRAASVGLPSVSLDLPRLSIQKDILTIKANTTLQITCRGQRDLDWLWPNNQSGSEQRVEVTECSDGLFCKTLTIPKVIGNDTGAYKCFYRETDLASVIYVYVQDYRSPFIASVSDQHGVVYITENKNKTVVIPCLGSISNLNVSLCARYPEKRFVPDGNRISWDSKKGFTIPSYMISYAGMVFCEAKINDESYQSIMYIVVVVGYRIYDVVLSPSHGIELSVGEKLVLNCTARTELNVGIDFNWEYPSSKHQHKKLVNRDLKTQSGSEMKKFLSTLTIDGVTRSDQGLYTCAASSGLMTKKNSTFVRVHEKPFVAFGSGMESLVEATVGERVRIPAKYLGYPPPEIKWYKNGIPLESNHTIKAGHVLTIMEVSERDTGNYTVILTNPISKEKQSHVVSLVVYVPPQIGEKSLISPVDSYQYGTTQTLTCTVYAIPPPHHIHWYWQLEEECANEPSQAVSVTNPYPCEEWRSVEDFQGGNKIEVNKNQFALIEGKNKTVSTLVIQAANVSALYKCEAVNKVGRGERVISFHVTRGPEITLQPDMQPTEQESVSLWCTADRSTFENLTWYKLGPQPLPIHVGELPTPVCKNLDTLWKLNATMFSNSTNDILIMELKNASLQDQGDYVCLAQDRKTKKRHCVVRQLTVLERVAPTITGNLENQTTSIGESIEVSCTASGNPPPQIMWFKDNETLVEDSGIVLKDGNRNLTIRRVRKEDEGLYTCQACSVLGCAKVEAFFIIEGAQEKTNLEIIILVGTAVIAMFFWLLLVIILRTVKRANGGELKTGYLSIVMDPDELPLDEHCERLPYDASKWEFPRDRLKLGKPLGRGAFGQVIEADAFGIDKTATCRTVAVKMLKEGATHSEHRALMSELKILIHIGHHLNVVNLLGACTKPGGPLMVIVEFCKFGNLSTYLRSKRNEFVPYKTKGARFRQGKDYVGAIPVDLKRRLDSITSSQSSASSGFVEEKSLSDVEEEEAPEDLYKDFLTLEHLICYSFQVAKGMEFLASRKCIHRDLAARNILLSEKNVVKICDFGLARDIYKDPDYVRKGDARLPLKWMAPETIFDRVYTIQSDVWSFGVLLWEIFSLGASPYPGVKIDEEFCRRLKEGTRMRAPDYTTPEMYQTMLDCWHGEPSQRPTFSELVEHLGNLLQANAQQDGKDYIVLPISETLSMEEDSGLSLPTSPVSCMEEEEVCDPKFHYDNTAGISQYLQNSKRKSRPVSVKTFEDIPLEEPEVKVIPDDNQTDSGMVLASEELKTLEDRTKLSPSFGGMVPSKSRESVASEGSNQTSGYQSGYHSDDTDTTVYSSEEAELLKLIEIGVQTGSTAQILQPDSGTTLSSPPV
In test [4] the target is Dual specificity tyrosine-phosphorylation-regulated kinase 1B (Homo sapiens) (UniProt Q9Y463). As to the kind of experiment: Inhibition of DYRK1B at 10 uM by colorimetric analysis.
Dual specificity tyrosine-phosphorylation-regulated kinase 1B (Homo sapiens), sequence (Q9Y463 whole entry, looked up): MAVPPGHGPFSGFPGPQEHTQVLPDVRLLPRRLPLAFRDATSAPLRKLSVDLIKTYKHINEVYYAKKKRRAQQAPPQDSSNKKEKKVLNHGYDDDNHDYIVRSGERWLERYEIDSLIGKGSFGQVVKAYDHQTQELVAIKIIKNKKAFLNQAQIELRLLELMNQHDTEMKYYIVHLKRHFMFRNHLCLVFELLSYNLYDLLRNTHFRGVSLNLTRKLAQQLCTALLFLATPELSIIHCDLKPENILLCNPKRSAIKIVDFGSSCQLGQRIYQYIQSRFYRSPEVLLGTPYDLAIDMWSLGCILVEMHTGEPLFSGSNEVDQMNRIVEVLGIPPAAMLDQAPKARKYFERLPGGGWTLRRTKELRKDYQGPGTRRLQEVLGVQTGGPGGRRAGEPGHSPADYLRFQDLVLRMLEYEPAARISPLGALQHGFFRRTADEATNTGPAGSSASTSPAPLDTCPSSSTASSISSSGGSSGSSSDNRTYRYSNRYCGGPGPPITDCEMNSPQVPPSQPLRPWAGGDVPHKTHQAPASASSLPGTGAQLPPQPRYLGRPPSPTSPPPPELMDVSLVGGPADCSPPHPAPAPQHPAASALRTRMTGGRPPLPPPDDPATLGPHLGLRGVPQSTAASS
In test [5] the target is T2, Serine/threonine-protein kinase Nek2 (Homo sapiens) (UniProt P51955).
T2 sequence (whole entry): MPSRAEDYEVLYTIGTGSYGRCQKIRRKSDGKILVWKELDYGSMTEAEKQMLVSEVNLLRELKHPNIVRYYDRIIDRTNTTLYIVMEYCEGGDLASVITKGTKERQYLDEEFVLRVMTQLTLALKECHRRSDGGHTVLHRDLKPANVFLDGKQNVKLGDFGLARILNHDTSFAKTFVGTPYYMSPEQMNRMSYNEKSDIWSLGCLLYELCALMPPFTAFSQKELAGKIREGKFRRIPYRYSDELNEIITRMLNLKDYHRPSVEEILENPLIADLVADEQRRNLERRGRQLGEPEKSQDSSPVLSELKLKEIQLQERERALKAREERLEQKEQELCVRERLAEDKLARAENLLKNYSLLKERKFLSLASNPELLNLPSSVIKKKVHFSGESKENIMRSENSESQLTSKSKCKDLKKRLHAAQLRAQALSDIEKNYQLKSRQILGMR
The test can be described thus: Inhibition of NEK2 at 10 uM by colorimetric analysis.

The target in test [6] is MAP kinase-activated protein kinase 2 (Homo sapiens) (UniProt P49137). The test can be described thus: Inhibition of MAPKAPK2 at 10 uM by colorimetric analysis.
MAP kinase-activated protein kinase 2 (Homo sapiens), sequence (P49137 whole entry, looked up): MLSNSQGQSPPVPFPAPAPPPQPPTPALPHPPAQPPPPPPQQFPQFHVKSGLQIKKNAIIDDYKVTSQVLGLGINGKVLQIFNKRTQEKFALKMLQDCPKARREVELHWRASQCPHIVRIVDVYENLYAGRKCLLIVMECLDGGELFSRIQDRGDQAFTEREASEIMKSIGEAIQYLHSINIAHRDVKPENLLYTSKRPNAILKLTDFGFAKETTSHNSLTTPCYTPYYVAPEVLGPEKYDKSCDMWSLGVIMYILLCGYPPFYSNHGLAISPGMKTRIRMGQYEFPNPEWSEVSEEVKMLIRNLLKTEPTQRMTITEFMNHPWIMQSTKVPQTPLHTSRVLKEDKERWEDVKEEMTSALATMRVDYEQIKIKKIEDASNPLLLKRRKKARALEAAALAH
For test [7], the target named is Proto-oncogene tyrosine-protein kinase Src (Homo sapiens) (UniProt P12931). The test can be described thus: Inhibition of SRC at 10 uM by colorimetric analysis.
Proto-oncogene tyrosine-protein kinase Src (Homo sapiens), sequence (P12931 2-536 limits assumed): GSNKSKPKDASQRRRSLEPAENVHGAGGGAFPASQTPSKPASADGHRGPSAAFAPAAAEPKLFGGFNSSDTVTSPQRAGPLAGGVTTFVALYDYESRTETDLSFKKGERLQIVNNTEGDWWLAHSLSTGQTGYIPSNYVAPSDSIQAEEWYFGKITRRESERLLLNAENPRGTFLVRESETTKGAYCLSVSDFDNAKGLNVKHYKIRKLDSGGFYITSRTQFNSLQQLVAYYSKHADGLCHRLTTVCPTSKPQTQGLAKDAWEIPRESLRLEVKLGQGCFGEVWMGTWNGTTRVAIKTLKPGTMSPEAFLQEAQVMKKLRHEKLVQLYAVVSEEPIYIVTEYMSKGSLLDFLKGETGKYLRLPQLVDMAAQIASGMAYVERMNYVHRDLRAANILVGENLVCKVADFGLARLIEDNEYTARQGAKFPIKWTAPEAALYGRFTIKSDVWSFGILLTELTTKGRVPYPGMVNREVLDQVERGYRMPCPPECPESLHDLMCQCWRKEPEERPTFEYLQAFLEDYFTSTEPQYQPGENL
Test [8] deals with Tyrosine-protein kinase SYK (Homo sapiens) (UniProt P43405). The test can be described thus: Inhibition of SYK at 10 uM by colorimetric analysis.
Test [9] addresses Epidermal growth factor receptor (Homo sapiens) (UniProt P00533). As to the kind of experiment: Inhibition of EGFR at 10 uM by colorimetric analysis.
The target of test [10] is T3, Serine/threonine-protein kinase Sgk1 (Homo sapiens) (UniProt O00141).
T3 sequence (whole entry): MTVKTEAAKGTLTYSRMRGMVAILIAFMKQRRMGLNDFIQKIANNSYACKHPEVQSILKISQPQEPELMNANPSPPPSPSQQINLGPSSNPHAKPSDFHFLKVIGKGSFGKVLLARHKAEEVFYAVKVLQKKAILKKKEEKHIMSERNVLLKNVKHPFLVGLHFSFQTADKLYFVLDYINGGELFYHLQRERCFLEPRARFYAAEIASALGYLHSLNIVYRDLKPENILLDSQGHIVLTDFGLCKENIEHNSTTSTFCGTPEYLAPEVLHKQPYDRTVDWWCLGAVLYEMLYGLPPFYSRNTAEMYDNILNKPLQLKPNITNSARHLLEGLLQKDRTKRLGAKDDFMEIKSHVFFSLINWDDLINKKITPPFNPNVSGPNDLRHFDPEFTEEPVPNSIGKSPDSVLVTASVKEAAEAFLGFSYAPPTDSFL
The test can be described thus: Inhibition of SGK at 10 uM by colorimetric analysis.

In test [11] the target is Angiopoietin-1 receptor (Homo sapiens) (UniProt Q02763). The test can be described thus: Inhibition of TIE2 at 10 uM by colorimetric analysis.
In test [12] the target is T4, Serine/threonine-protein kinase Chk1 (Homo sapiens) (UniProt O14757).
T4 sequence (whole entry): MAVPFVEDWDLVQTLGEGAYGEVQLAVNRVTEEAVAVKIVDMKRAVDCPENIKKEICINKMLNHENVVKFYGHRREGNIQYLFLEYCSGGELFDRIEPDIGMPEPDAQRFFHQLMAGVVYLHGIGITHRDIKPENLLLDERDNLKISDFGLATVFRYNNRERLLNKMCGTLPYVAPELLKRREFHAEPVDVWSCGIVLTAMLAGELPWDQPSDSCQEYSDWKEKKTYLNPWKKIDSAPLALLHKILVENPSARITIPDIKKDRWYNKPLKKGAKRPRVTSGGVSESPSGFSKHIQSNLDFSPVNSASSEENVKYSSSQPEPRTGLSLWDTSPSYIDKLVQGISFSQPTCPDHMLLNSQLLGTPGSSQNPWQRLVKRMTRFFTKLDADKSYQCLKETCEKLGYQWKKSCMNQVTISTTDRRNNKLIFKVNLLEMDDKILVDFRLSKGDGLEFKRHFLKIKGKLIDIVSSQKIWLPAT
The test can be described thus: Inhibition of CHK1 at 10 uM by colorimetric analysis.

Test [13] deals with Protein kinase C alpha type (Homo sapiens) (UniProt P17252). The test can be described thus: Inhibition of PKCalpha at 10 uM by colorimetric analysis.
The target of test [14] is Tyrosine-protein kinase Lck (Homo sapiens) (UniProt P06239). The test can be described thus: Inhibition of LCK at 10 uM by colorimetric analysis.
Tyrosine-protein kinase Lck (Homo sapiens), sequence (P06239 2-509 limits assumed): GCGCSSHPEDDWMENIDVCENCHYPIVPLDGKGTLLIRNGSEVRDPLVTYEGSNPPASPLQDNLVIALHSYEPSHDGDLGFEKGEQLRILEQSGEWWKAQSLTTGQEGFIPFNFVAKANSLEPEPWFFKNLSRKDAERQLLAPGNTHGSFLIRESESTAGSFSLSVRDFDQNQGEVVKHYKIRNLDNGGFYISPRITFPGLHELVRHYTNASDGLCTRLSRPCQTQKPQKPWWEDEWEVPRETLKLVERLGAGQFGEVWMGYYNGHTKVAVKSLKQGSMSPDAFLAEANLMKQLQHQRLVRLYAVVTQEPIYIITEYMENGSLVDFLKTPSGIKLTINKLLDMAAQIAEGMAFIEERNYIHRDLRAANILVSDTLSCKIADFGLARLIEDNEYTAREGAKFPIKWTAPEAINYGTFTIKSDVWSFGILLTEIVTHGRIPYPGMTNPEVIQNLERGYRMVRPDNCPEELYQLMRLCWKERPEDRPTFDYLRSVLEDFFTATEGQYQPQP
In test [15] the target is Rho-associated protein kinase 1 (Homo sapiens) (UniProt Q13464). The test can be described thus: Inhibition of ROCK1 at 10 uM by colorimetric analysis.
In test [16] the target is Mitogen-activated protein kinase 14 (Homo sapiens) (UniProt Q16539). As to the kind of experiment: Inhibition of p38alpha at 10 uM by colorimetric analysis.
Mitogen-activated protein kinase 14 (Homo sapiens), sequence (Q16539 whole entry): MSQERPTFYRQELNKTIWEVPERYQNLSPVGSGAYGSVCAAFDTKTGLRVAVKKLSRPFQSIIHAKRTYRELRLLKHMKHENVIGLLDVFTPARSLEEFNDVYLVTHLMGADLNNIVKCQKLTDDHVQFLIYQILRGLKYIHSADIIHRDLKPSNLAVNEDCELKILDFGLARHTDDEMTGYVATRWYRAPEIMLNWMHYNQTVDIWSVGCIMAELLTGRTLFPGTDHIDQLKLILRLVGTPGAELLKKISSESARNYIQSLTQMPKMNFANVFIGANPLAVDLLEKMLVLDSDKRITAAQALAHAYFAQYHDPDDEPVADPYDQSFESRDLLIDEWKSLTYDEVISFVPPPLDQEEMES
Test [17] deals with Mitogen-activated protein kinase 1 (Homo sapiens) (UniProt P28482). The test can be described thus: Inhibition of Erk2 at 10 uM by colorimetric analysis.
Test [18] has as its target Hepatocyte growth factor receptor (Homo sapiens) (UniProt P08581). As to the kind of experiment: Inhibition of MET at 10 uM by colorimetric analysis.
Test [19] deals with Protein-tyrosine kinase 2-beta (Homo sapiens) (UniProt Q14289). The test can be described thus: Inhibition of PYK2 at 10 uM by colorimetric analysis.

The source made the active and inactive calls. The calls are words filed in the database; no cut-off is given here.

Epidermal growth factor receptor (Homo sapiens), sequence (P00533 whole entry): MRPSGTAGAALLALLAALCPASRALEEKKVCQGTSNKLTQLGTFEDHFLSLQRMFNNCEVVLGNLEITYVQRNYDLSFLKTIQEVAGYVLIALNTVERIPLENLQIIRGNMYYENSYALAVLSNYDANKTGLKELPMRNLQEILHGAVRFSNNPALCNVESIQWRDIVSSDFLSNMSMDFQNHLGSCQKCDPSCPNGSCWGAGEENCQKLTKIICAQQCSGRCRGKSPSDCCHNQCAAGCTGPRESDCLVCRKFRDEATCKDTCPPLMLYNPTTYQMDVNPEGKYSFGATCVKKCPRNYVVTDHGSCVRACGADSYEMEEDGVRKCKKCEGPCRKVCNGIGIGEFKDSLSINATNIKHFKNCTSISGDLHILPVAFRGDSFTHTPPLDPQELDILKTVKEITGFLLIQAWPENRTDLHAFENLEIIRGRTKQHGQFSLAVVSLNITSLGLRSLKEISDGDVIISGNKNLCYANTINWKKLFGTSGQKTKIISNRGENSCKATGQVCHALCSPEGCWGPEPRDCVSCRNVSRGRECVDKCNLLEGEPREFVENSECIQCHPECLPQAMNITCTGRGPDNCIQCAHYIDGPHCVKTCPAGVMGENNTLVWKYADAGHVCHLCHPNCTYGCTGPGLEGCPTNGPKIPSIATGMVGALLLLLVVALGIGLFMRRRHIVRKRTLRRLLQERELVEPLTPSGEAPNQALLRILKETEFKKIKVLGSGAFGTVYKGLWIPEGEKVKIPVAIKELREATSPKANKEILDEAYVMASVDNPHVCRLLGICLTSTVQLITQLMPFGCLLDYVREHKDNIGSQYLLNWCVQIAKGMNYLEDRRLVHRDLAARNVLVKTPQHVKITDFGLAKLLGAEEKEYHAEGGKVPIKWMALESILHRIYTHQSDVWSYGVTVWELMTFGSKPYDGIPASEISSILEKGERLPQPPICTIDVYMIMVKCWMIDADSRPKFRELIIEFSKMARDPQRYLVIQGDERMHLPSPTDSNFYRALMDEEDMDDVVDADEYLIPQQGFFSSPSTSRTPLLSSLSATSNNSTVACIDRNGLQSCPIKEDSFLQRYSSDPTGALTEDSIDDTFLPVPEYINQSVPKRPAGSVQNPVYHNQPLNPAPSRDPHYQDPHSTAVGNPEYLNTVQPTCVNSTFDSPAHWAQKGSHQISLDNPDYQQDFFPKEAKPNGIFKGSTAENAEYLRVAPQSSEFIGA

Regarding `Clc1ccc(-n2nncc2-c2ccncc2)cc1`, the inhibition entry in [1], in test [2], in [4], in test [5], in [6] and in test [10] was “Active” each time. For the same compound, the inhibition entry in [12], in [13], in test [15], in test [16] and in test [17] was “Active” throughout. Besides, the inhibition result in test [3], in [7], in test [8], in [9], in test [11] and in test [14] was “inactive” throughout. The inhibition result in test [18] and in test [19] was “inactive” each time.
With `Clc1ccc(-n2cc(-c3ccncc3)nn2)cc1`, the inhibition entry in test [1], in test [2], in test [4], in test [5], in [6] and in test [10] was “Active” throughout. Besides, the inhibition entry in test [12], in [13], in test [15], in test [16] and in test [17] was “Active” each time. Besides, the inhibition entry in test [3], in [7], in test [8], in test [9], in test [11] and in [14] was “inactive” throughout. Also, the inhibition entry in [18] and in test [19] was “inactive” throughout.
With `Clc1cccc(-n2cc(-c3ccncc3)nn2)c1`, the inhibition entry in [1], in test [2], in test [4], in test [5], in test [6] and in test [10] was “Active” each time. For the same compound, the inhibition result in test [12], in test [13], in [15], in test [16] and in test [17] was “Active” throughout. The inhibition result in [3], in test [7], in test [8], in test [9], in test [11] and in test [14] was “inactive” in each case. Besides, the inhibition entry in [18] and in [19] was “inactive” each time.
As to `Clc1cccc(-n2nncc2-c2ccncc2)c1`, the inhibition result in [1], in [2], in test [4], in [5], in test [6] and in test [10] was “Active” throughout. The inhibition result in test [12], in test [13], in test [15], in [16] and in test [17] was “Active” each time. In addition, the inhibition result in test [3], in [7], in test [8], in test [9], in test [11] and in test [14] was “inactive” throughout. Further, the inhibition result in test [18] and in test [19] was “inactive” each time.
